Drawing on PubChem BioAssay (NCI), this text covers TGI for 14 compounds.

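Results reflect a 48-hour exposure of cells in 96-well plates to compound at five concentrations. The concentration for full growth arrest is given as TGI.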

Some test systems named below: COLO 205 colon; A549 NSCLC; NCI-H460 lung; MOLT-4 leukemia; NCI-H522 lung; SNB-19 CNS; OVCAR-8 ovarian; HT29 colon; NCI-H23 lung; 786-0 renal; MDA-N.
Test in all cases: NCI tumour cell line growth inhibition, 48 h

Regarding `CC(C)N=C(N)NC#N`, the TGI in the assay on COLO 205 colon, with A549 NSCLC, with NCI-H460 lung, with MOLT-4 leukemia, with NCI-H522 lung and in the assay with SNB-19 CNS was more than 100 µM in each case. Further, the TGI in the assay with OVCAR-8 ovarian and with HT29 colon was more than 100 µM each time.

In the case of `[N-]=[N+]=NC(c1cn(C2CC(O)C(CO)O2)c(=O)[nH]c1=O)C(Cl)I` (configuration not stated), the TGI in the assay with COLO 205 colon, in the assay with A549 NSCLC, with NCI-H460 lung, in the assay on NCI-H23 lung, with 786-0 renal and in the assay on MOLT-4 leukemia was more than 100 µM each time. Further, the TGI in the assay on MDA-N, in the assay on SNB-19 CNS, with OVCAR-8 ovarian and with HT29 colon was more than 100 µM in each case.

For the compound `Cc1c2c(c(O)c3c(O)cccc13)C(=O)C1(O)C(O)=C(C(=O)NCNc3ccc(C(N)=O)cn3)C(=O)C(N(C)C)C1C2` (configuration not stated), the TGI is more than 100 µM in the assay with COLO 205 colon; 23 µM in the assay on A549 NSCLC; 39.3 µM in the assay with NCI-H23 lung; more than 100 µM in the assay with 786-0 renal; 9.41 µM with MOLT-4 leukemia; 98.5 µM with MDA-N. For the same compound, the TGI in the assay on OVCAR-8 ovarian is 35.5 µM; in the assay with HT29 colon, more than 100 µM.

For the compound `CC1=C(O)C(=O)C2C(=O)C1C1Cc3ccccc3C21` (configuration not stated), the TGI with COLO 205 colon, with A549 NSCLC, with NCI-H23 lung, with 786-0 renal, in the assay with MOLT-4 leukemia and in the assay with NCI-H522 lung was more than 100 µM throughout. Moreover, the TGI with SNB-19 CNS, in the assay on OVCAR-8 ovarian and in the assay on HT29 colon was more than 100 µM in each case.

As to `COc1ccc(C2SCC(=O)N2NC(=O)c2ccc(NC(C)=O)cc2)c(OC)c1` (configuration not stated), the TGI in the assay with COLO 205 colon, in the assay on A549 NSCLC, in the assay on NCI-H460 lung, in the assay with NCI-H23 lung, with 786-0 renal and with MOLT-4 leukemia was more than 100 µM in each case. Moreover, the TGI in the assay on MDA-N, in the assay on SNB-19 CNS, in the assay with OVCAR-8 ovarian and with HT29 colon was more than 100 µM in each case.

With `COc1ccccc1-c1cc(=O)c2cc3c(cc2[nH]1)OCO3`, the TGI in the assay with COLO 205 colon is 51.5 µM; with A549 NSCLC, more than 100 µM; in the assay on NCI-H460 lung, more than 100 µM; in the assay on NCI-H23 lung, more than 100 µM; in the assay on 786-0 renal, more than 100 µM; with MOLT-4 leukemia, more than 100 µM. Also, the TGI in the assay on SNB-19 CNS, in the assay with OVCAR-8 ovarian and in the assay on HT29 colon was more than 100 µM each time.

As for `COc1ccc(/C(Cl)=C(\C=N/O)c2ccc(OC)c(OC)c2)cc1OC`, the TGI with COLO 205 colon, with A549 NSCLC, with NCI-H460 lung, in the assay on NCI-H23 lung, with 786-0 renal and with MOLT-4 leukemia was more than 100 µM each time. Further, the TGI with NCI-H522 lung, with SNB-19 CNS, in the assay on OVCAR-8 ovarian and in the assay with HT29 colon was more than 100 µM throughout.

Regarding `Cc1cc(/C=C/c2cc[n+](C)c3ccccc23)c(O)c2ncccc12`, the TGI worked out at 23.3 µM with COLO 205 colon; 19.1 µM in the assay on A549 NSCLC; 16.7 µM with NCI-H460 lung; 4.86 µM with NCI-H23 lung; 14.3 µM in the assay with 786-0 renal; 7.47 µM in the assay on MOLT-4 leukemia. Also, the TGI in the assay on NCI-H522 lung came to 11.6 µM; with SNB-19 CNS, 20.8 µM; in the assay on OVCAR-8 ovarian it was 16.1 µM; in the assay on HT29 colon, 14.6 µM.

For `Cc1c(N2CCN(C)CC2)nc2ccc(Cl)cc2c1-c1ccccc1`, the TGI in the assay with COLO 205 colon is 29.7 µM; in the assay on A549 NSCLC it was 36.9 µM; with NCI-H460 lung, 33.4 µM; in the assay with NCI-H23 lung, 55.4 µM; with 786-0 renal, 27.9 µM; in the assay with MOLT-4 leukemia, more than 10 µM. Also, the TGI came out at 38.6 µM in the assay on NCI-H522 lung, 66.2 µM with SNB-19 CNS, 31.8 µM in the assay with OVCAR-8 ovarian and 27.7 µM in the assay on HT29 colon.

In the case of `COC1C(O)C(n2ncc3c(SC)nc(SC)nc32)OC1C(O)CO` (configuration not stated), the TGI in the assay on COLO 205 colon, in the assay on A549 NSCLC, in the assay with NCI-H460 lung, in the assay with NCI-H23 lung, with MOLT-4 leukemia and with NCI-H522 lung was more than 100 µM each time. Also, the TGI with SNB-19 CNS, with OVCAR-8 ovarian and with HT29 colon was more than 100 µM in each case.

For the compound `NC(=O)NCCCC(NC(=O)OCCCCCCn1ccc(=O)[nH]c1=O)C(=O)O` (configuration not stated), the TGI in the assay on COLO 205 colon, in the assay on A549 NSCLC, in the assay with NCI-H460 lung, with NCI-H23 lung, in the assay with 786-0 renal and in the assay on MOLT-4 leukemia was more than 100 µM in each case. Besides, the TGI in the assay on MDA-N, in the assay with SNB-19 CNS, with OVCAR-8 ovarian and in the assay with HT29 colon was more than 100 µM in each case.

On to `COc1cc(-c2cc(=O)c3c(O)c(CC=C(C)C)c(O)cc3o2)ccc1O`, for which the TGI in the assay on COLO 205 colon is more than 50 µM; in the assay on A549 NSCLC, more than 50 µM; in the assay with NCI-H460 lung, more than 50 µM; in the assay on NCI-H23 lung it was more than 50 µM; in the assay on MOLT-4 leukemia, more than 50 µM; in the assay with MDA-N, 20.2 µM. Moreover, the TGI in the assay with SNB-19 CNS, with OVCAR-8 ovarian and with HT29 colon was more than 50 µM each time.

Consider `COc1ccc(/C=C2\CCS(=O)(=O)c3ccccc3C2=O)cc1`, for which the TGI was 30.5 µM in the assay with COLO 205 colon; more than 100 µM in the assay on A549 NSCLC; 57 µM in the assay with NCI-H460 lung; 47.6 µM with NCI-H23 lung; 34.6 µM in the assay on 786-0 renal; 65.2 µM in the assay with MOLT-4 leukemia. Further, the TGI came out at 77.3 µM in the assay on MDA-N, 70.6 µM in the assay with SNB-19 CNS, 53.4 µM in the assay on OVCAR-8 ovarian and 35.9 µM in the assay with HT29 colon.

As to `COc1ccc(Cc2nnc(Nc3ccc(Br)cc3)[nH]c2=O)cc1OC`, the TGI in the assay with COLO 205 colon, in the assay with A549 NSCLC, with NCI-H460 lung, in the assay with NCI-H23 lung, in the assay on 786-0 renal and in the assay on MOLT-4 leukemia was more than 100 µM throughout. Besides, the TGI in the assay with NCI-H522 lung, in the assay with SNB-19 CNS, with OVCAR-8 ovarian and in the assay on HT29 colon was more than 100 µM in each case.
